From patent US9573975B2, “Melanoma antigen peptide and uses thereof” (INSERM (INSTITUT NATIONAL DE LA SANTE ET DE LA RECHERCHE …, priority 2012, dated 2017) come the findings set out here.

In the assay the test system is MELOE-1 specific CD4 T cell clones. The assay is described as follows: Recognition of autologous DC loaded with antigen by CD4 T cell clones (TNF-α). The assay is classed as cell-based, human. On the procedure: FIG. 4: Class II epitopes are naturally processed from MELOE-1 whole antigen. Autologous DC, were loaded (before or after fixation) with MELOE-12-46 (1 μM) or, as a negative control, with Melan-A16-40L peptide (1 μM), and matured. T cell clones were then stimulated with DC at a ratio 1:1, during 5 h in presence of Brefeldin A, then stained with APC-conjugated anti-CD3 mAb, fixed with 4% paraformaldehyde, labeled with PE-conjugated anti-TNF-α mAb and analyzed by flow cytometry. Histograms illustrated the % of TNF-α producing cells among CD3 positive T cells.
Dendritic Cells Generation and Loading Monocytes were purified from PBMC of healthy donors by a CD14-enrichment kit, according the recommendations of the supplier (Stem Cell, France). Immature dendritic cells (iDC) were generated by culturing monocytes in RPMI supplemented with 20 mg/mL of human albumin, 1000 IU/mL of GM-CSF and 200 IU/mL of IL-4 for 5 days. Then, iDC were pulsed with the whole MELOE-1 (1 μM) protein or the modified Melan-A16-40 A27L as negative control (1 μM) and matured with 20 ng/mL of TNF-α and 50 μg/mL of PolyI:C for 4 hours at 37° C. Finally they were fixed for 1 minute with PBS/0.015% glutaraldehyde. Alternatively, iDC were first matured, fixed and then pulsed with antigens at the same concentration. […]

Take “MSCVGYPDEATSREQFLPSEGAACPPWHPSERISSTLNDECWPASL [MELOE-1]”: the “recognition by specific CD4 T cell clones of loaded autologous DC” value (DC loaded after DC fixation) was “only a weak recognition”. Also, the “reactivity of the four CD4 T cell clones against loaded autologous DC” value (iDC loaded with 1 μM in serum-free medium, matured, then fixed) is listed as “reactive”.
